The structures appear in SMILES notation.

The subject of assay [1] is PC3 prostate carcinoma cells. The assay can be described thus: Intracellular redox state assay (DCFDA, flow cytometry). To be noted: 1 h, sodium selenate 500 μM, NAC 1 mM.
Method: 1×10^6 PC3 prostate carcinoma cells were plated in 60 mm dishes, allowed to attach for 8 h, and serum starved overnight. Cells were incubated with DCFDA 5 μM for 15 min prior to treatment.
The proportion of fluorescent cells was then determined by flow cytometry.
Intracellular redox state was determined using 2′,7′-dichlorodihydrofluorescein diacetate (DCFDA). […] Cells were equilibrated with 5 μM of DCFDA for 15 min prior to various treatments. Adherent cells were then harvested, washed twice with PBS and the proportion of fluorescent cells determined immediately by flow cytometry.
The target of a further assay is T1, PP2A A-C dimer (Homo sapiens, UniProt P67775).
T1 construct: purified PP2A A-C dimer purified from human red blood cells; purchased Upstate 14-111 (lot #28002); host or cells: human red blood cells (native purification)
The assay is described as follows: Phosphopeptide / malachite green assay with purified PP2A. The format is biochemical. The method, then:
The amount of inorganic phosphate released by enzymatic activity was determined by the addition of malachite green, and absorbance read at 590 nm. Malachite green forms a stable green complex in the presence of molybdate and orthophosphate, allowing the concentration of inorganic phosphate present to be measured. Data is presented as mean absorbance at 590 nm from at least three independent experiments, ±SEM.
(§1) 1 mg of synthetic phosphopeptides K-R-pT-I-R-R (Upstate #12-219) and R-R-A-pS-V-A (Upstate #12-220) were dissolved in 1.10-1.285 ml of dH2O to prepare a 1 mM solution, then aliquoted and stored at −20° C. until use. 0.01-0.05 U of purified PP2A A-C dimer purified from human red blood cells, or 0.05 U of rabbit PP1 purified from skeletal muscle was mixed with 500 μM of phosphopeptide and incubated in the presence of various treatments as indicated at 37° C. on a heating block for 15 min. Each reaction was made up to a total volume of 25 μl with pNPP buffer (50 mM Tris-HCl, pH 7.0, 100 μM CaCl2). The enzyme reaction was terminated by adding 100 μl of malachite green solution (0.034% malachite green in 10 mM ammonium molybdate, 1 N HCl, 3.4% ethanol, 0.01% Tween-20). Malachite green forms a stable green complex in the presence of molybdate and orthophosphate, allowing the amount of inorganic phosphate present to be measured. Absorbance was read in duplicate for each sample at 590 nm.

Another assay has as its system GSK-3β. The assay is described as follows: GSK-3β Ser9 phosphorylation by immunoblot in PC3 cells. The format is cell-based, human. The source says: The metabolic effects of insulin on glycogen synthesis are mediated by glycogen synthase kinase-3 (GSK-3), a direct downstream substrate of Akt. GSK-3 is a ubiquitously expressed serine/threonine kinase that phosphorylates and inactivates glycogen synthase. In response to activation of the insulin receptor, Akt phosphorylates and inactivates the repressor GSK-3, thereby stimulating glycogen synthesis [Cross et al., 1995]. […] Resolved whole cell lysates were subjected to immunoblot analysis with an antibody that specifically recognizes GSK-3β only when phosphorylated at Ser9, a site critical for its kinase activity, and comparison made with the cytoskeletal protein β-tubulin as a loading control.
In general terms: In western blotting, separated proteins are transferred to a membrane and probed.

The next assay relates to rabbit PP1. The conditions noted are these: 0.05 U PP1, 500 μM phospho-threonine peptide, 15 min at 37° C., 50 μM sodium selenate. As to the method:
as §1

In assay [2] the target is T2, PP2A catalytic subunit complexed with Akt (Homo sapiens, UniProt P67775).
T2 construct: Total Akt was immunoprecipitated from 400 μg of each whole cell lysate using a monoclonal anti-Akt antibody; endogenous in cells; host or cells: PC3 prostate carcinoma cells
T2 sequence (P67775 whole entry): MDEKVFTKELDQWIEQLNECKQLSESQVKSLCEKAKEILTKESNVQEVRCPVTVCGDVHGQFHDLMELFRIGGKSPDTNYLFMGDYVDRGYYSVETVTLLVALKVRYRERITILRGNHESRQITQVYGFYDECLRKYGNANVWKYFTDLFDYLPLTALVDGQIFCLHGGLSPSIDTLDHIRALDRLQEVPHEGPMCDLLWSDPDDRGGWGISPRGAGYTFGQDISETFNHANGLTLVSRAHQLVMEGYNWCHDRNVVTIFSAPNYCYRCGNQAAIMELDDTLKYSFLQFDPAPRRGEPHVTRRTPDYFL
T2 sequence (P30153 2-589 partner limits assumed): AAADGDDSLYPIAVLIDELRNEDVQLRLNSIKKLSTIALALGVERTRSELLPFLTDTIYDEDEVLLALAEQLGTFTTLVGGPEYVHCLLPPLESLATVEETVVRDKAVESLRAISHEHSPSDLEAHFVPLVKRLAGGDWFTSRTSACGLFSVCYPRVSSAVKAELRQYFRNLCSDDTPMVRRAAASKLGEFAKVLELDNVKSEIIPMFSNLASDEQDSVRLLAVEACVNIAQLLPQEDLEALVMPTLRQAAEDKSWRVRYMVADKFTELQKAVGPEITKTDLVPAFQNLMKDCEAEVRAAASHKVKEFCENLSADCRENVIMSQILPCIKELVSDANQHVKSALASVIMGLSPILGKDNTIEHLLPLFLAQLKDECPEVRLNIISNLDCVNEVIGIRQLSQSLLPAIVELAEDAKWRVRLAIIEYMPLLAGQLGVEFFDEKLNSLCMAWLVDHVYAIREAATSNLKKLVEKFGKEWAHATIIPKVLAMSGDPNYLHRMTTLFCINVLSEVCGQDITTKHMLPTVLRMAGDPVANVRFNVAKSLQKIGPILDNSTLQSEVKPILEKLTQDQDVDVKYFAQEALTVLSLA
The assay is described as follows: Co-immunoprecipitation of PP2A catalytic subunit with Akt from PC3 cells. The format is cell-based. The conditions noted are these: 500 μM, 1.5 h, densitometry.
Method: 1×10^6 PC3 prostate carcinoma cells were plated onto 6 cm dishes, allowed attach for 8 h, and then serum starved overnight. […] Total Akt was immunoprecipitated from 400 μg of each whole cell lysate using a monoclonal anti-Akt antibody, and captured with protein A-sepharose beads. […] Following washing to reduce non-specific binding, the beads were boiled for 5 min in 3× SDS protein loading buffer, centrifuged at high speed and the supernatant resolved by SDS-PAGE. The level of PP2A binding was determined by immunoblot analysis with an antibody that specifically recognizes the catalytic subunit of the phosphatase, and comparison made with the amount of Akt pulled down and the concentration of precipitating antibody (IgG). […] To quantify this increase in complex formation, representative immunoblots from three independent experiments were digitalized, subjected to densitometric analysis, and normalized to the control for each experiment. The mean ratio of PP2A catalytic subunit to total immunoprecipitated Akt protein ±SEM was then determined.
100-600 μg of whole cell lysate was incubated with various antibodies at a 1:100 dilution in microfuge tubes on a rotating wheel for 1-2 h at RT or 16 h at 4° C. as indicated. Following brief centrifugation, 30-40 μl of pre-washed 50% Protein-A Sepharose Fast Flow beads (Sigma #9424) was added to each tube and rotated at 4° C. for 1 h at RT or 4° C. […]

Another assay relates to PHF Tau. To be noted: Balb/C Nu Nu male mice, single subcutaneous injection 300 μg per 200 μl PBS, 2 and 6 hours. As to the method:
Lysates preparation and Immunoblotting: Cells were washed twice in cold PBS and were lysed in 150 μl of cold RIPA buffer (containing 10% glycerol, 20 mM Tris, 137 mM NaCl, 0.1% SDS, 0.05% IGEPAL, 1% Triton X-100, 2 mM EDTA, 10% NaV, 2% NaF and 4× protease inhibitor), similarly, brain tissues were homogenised in dry ice using mortar and pestle, and lysed in 150 μl RIPA buffer. Samples were incubated on ice for 30 minutes, followed by centrifugation at 13000 rpm/ 10 minutes/ 4° C. Supernantant was collected and protein estimation was calculated for each sample by using BCA reagent (Sigma). Equal amounts of protein were loaded into each lane of a 10% SDS-polyacrylamide gel. The proteins were transferred onto PVDF (Millipore) membranes and were blocked with 5% skim milk blotto for 2 hours. After blocking the membrane, primary antibodies: either anti-human PHF-Tau (AT100 at 1:200, AT180 at 1:1000, and AT270 at 1:2500) or anti-human Tau (HT-7 at 1:1000) were incubated overnight at 4° C. in 5% skim milk blotto. Prior to secondary antibody incubation, membranes were rinsed 3× followed by 3×5 minutes washed in Tris-Buffered Saline with 0.01% Tween at room temperature. […] Membranes were washed as described above and were detected by using Amersham ECL western blotting detection reagent (Amersham Bioscience, Buckinghamshire, UK). […]

T1 sequence (P67775 whole entry): as the sequence (P67775 whole entry) above
T1 sequence (P30153 2-589 partner limits assumed): as the sequence (P30153 2-589 partner limits assumed) above

Turning to `O=[Se](=O)(O)O` [sodium selenate], the “basal proportion of fluorescent cells (ROS)” value in assay [1] is listed as “had no effect on the basal proportion of fluorescent cells”. Further, the “PP2A phosphatase activity, serine phosphopeptide as substrate” value at PP2A A-C dimer (50 μM of each selenium compound) was “clear boost in phosphatase activity”. Also, on PP2A A-C dimer (0.01-0.05 U PP2A, 500 μM phosphopeptide, 15 min at 37° C., 50 μM sodium selenate), the “inorganic phosphate released from phosphopeptide by PP2A” value is reported as “more than doubled”. Besides, the “GSK-3β phosphorylation at Ser9, time course” value in the assay on GSK-3β (500 μM, 0 to 6 h) was “marked reduction in phosphorylation, which was maximal at 1 h and 3 h, and returned towards basal levels at the 6 h timepoint”. In addition, in the assay with GSK-3β (densitometry, sodium selenate 500 μM 3 h, LY294002 50 μM 1 h), the “reduction of GSK-3β phosphorylation levels” value is “over 20%”. Moreover, the “phosphatase activity of PP1” value in the assay on rabbit PP1 is “did not affect the phosphatase activity of PP1”. Also, the “increase in the binding of PP2A catalytic subunit to Akt protein” value in assay [2] is “approximately 50%”. In addition, in the assay with PHF Tau, the “PHF Tau signal in brain lysate, clone AT100 (60 kDa)” value is listed as “PHF Tau signal appeared to be reduced” and the “PHF Tau signal in brain lysate, clone AT180 (60 kDa)” value is recorded as “PHF Tau signal clearly reduced”.

For the origin of these results see US8920851B2, “Treatment of neurodegenerative diseases” (Velacor Therapeutics Pty Ltd, priority 2006, dated 2014).
